Assay results: US11667623B2, “Scaffold of adenylyl cyclase inhibitors for chronic pain and opioid dependence” (Purdue Research Foundation, priority 2017, dated 2023)
Read-outs that look alike come from different tables or passages of the source.

Columns and labels:
hAC1 = target: T1, hAC1 (Homo sapiens, UniProt Q08828); experiment: Cyclic AMP accumulation (HTRF) in HEK cells stably expressing AC1, stimulated with A23187; format: cell-based; conditions: for Selectivity AC1 vs AC8: AC8 IC50/AC1 IC50, without AC8 IC50, estimate based on IC50 ≥30 μM; for inhibition at 30 µM: HEK293
T1 construct: expressed in transfected cells
T1 sequence (Q08828 whole entry): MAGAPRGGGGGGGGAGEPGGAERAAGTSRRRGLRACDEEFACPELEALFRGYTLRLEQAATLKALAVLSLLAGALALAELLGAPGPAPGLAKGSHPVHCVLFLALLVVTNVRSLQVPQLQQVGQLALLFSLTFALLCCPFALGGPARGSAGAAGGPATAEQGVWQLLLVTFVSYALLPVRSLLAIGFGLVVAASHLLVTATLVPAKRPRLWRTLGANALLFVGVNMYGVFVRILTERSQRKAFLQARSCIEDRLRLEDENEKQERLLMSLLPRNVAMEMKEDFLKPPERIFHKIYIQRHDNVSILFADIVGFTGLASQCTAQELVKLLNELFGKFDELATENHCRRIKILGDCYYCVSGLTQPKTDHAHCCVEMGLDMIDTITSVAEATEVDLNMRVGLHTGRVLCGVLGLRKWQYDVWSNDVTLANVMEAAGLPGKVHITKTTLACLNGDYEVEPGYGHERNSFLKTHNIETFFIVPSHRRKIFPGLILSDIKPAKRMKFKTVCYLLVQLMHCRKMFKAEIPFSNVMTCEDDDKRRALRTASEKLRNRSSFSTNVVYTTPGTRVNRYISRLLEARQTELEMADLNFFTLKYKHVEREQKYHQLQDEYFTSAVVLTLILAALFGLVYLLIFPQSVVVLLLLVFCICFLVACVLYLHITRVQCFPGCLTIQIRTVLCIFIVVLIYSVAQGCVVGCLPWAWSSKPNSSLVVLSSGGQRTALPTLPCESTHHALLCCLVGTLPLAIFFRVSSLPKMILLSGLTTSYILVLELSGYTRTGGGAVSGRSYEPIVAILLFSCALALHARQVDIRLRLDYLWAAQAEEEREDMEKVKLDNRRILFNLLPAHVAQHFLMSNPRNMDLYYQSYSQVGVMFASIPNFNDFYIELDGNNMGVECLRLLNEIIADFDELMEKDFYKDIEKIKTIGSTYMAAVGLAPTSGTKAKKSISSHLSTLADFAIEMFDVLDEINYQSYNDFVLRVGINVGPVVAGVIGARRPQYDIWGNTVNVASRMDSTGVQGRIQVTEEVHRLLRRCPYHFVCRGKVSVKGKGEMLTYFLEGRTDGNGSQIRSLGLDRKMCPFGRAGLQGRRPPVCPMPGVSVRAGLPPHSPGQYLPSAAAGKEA
Method: The screen was carried out using HEK cells stably expressing AC1 (HEK-AC1) and cyclic AMP accumulation was stimulated using the Ca^2+ ionophore, A23187 to selectively activate AC1.
Both AC1 and AC8 are robustly activated by Ca^2+/CaM under a variety of conditions, whereas the effects of Ca^2+/CaM on AC3 are modest and conditional requiring activation by G proteins.
The primary technology we employed to measure cAMP accumulation was a homogenous time-resolved fluorescence (HTRF) assay, the same technology utilized in the primary screen. […]
(§1) Briefly, cryopreserved cells were thawed, resuspended in optiMEM (Life Technologies), and plated in white, flat bottom, low-volume, tissue culture-treated 384 well plates (PerkinElmer, Shelton, Conn.). Plates with cells were incubated in a 37° C. humidified incubator for 1 h. Inhibitors were added and plates were incubated at room temperature for 30 min followed by the addition of AC stimulants in the presence of 500 μM IBMX. Cells were incubated at room temperature for 1 h and cAMP accumulation was measured using Cisbio's cAMP kit (Cisbio Bioassays, Bedford, Mass.) according to the manufacturer's instructions.

hAC2 = target: T2, hAC2 (Homo sapiens, UniProt Q08462); experiment: Cyclic AMP accumulation in stable HEK-AC2 cells, stimulated with 100 nM PMA; format: cell-based; conditions: Table 1, at 30 μM, negative = potentiated, n = 2
T2 construct: expressed in transfected cells
T2 sequence (Q08462 whole entry): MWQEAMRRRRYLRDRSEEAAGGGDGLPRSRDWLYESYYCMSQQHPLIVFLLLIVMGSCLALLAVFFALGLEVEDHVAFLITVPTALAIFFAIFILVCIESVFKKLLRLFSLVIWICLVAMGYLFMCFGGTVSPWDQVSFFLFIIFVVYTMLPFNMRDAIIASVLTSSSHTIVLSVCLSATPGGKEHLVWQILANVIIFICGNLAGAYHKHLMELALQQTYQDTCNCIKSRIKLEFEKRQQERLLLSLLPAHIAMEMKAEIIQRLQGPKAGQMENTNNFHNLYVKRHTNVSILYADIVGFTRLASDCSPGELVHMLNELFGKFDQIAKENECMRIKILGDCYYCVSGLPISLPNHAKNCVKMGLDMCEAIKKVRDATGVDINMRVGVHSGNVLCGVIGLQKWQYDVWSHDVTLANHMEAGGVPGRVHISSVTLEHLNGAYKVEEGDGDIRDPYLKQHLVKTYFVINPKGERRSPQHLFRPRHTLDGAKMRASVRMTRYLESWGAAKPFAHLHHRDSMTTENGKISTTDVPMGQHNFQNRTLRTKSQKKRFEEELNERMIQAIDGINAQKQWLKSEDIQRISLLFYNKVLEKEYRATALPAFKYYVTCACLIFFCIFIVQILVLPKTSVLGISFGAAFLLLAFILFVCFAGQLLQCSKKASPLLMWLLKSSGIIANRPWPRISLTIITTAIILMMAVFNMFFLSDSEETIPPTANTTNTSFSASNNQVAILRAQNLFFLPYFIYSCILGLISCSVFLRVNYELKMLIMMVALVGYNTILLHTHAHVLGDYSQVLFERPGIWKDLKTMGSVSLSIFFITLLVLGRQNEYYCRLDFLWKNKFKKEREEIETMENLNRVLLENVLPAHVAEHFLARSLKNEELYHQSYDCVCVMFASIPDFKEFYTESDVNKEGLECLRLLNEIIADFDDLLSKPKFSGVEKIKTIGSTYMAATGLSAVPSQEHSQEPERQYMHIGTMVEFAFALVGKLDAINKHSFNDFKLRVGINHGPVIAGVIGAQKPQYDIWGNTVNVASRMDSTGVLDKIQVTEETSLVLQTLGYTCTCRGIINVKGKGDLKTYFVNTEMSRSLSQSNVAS
Method: as §1, with “Cyclic AMP accumulation was measured as previously described (Brust, et al., J. Pharmacol. Exp. Ther. 352, 480-493(2015)). Briefly,” for “Briefly,”

hAC8 = target: T3, hAC8 (Homo sapiens, UniProt P40145); experiment: Cyclic AMP accumulation (HTRF) in HEK cells stably expressing AC8, stimulated with A23187; format: cell-based; conditions: for hAC8 % Inhib: at 30 μM, negative values indicate a potentiated response; for inhibition at 30 µM: HEK293
T3 construct: expressed in transfected cells
T3 sequence (P40145 whole entry): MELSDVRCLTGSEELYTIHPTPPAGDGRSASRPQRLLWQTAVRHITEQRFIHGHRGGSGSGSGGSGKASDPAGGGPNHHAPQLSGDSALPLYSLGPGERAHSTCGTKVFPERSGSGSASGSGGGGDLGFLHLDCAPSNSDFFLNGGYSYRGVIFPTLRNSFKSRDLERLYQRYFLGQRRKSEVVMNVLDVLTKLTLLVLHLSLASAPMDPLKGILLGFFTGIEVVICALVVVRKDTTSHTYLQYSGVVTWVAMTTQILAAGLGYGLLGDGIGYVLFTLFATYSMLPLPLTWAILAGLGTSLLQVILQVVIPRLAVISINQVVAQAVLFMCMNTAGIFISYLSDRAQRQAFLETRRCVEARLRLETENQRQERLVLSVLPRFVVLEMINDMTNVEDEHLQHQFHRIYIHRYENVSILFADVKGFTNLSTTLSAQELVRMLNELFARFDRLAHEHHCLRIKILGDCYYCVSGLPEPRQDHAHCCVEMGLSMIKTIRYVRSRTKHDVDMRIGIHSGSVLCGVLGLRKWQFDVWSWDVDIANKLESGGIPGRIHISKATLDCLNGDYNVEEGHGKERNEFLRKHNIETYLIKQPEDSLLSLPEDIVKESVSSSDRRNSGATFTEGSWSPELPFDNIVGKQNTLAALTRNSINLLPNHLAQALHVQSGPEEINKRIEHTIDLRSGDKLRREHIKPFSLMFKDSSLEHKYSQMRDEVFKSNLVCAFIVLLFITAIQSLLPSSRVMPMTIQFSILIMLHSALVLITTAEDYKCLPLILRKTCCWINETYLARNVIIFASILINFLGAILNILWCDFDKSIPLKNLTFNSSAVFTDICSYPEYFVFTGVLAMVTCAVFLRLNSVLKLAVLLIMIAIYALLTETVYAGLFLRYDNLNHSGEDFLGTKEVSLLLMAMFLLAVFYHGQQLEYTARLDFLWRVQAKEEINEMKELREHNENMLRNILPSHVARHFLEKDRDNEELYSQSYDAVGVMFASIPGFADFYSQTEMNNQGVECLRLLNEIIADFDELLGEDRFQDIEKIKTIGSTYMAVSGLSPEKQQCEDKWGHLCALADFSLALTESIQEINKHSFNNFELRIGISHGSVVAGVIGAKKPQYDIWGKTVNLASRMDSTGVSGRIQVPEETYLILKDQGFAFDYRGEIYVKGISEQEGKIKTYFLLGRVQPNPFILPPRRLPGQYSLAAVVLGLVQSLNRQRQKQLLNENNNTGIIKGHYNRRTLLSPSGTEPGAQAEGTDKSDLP
Method: Fresh powders of several robust inhibitors (>90% inhibition) were evaluated in multiple confirmation assays assessing the dose response relationship for inhibiting AC1 and AC8 activity. Confirmation assays used A23817 to selectively stimulate recombinant AC1 or AC8 in the HEK cell background (Cumbay and Watts (2001), J. Pharmacol Exp Ther 297:1201-1399). This approach takes advantage of one unique regulatory property of AC1 for the development of selective inhibitors. Both AC1 and AC8 are robustly activated by Ca^2+/CaM under a variety of conditions, whereas the effects of Ca^2+/CaM on AC3 are modest and conditional requiring activation by G proteins. Previous studies have identified unique Ca^2+/CaM binding domains as one possible site of interaction to achieve AC1 (vs. AC8) selectivity (Masada et al., 2012, Biochemistry 51:7917-7929).
The primary technology we employed to measure cAMP accumulation was a homogenous time-resolved fluorescence (HTRF) assay, the same technology utilized in the primary screen.
Human embryonic kidney (HEK) cells stably expressing AC1, AC8, or AC1 with the MOR were cultured in Dulbecco's Modified Eagle Medium (Life Technologies, Grand Island, N.Y.) supplemented with 5% bovine calf serum (Hyclone, Logan, Utah), 5% fetal clone I (Hyclone), Antibiotic-Antimycotic (Life Technologies), and G418 (Invivogen, San Diego, Calif.) (HEK-AC1), or hygromycin B (Fisher Scientific, Pittsburgh, Pa.) (HEK-AC8), or G418 and puromycin (Sigma-Aldrich) (HEK-AC1/MOR). Chinese hamster ovary (CHO) cells expressing the MOR (CHO-MOR) in the PathHunter® β-Arrestin GPCR assay platform were purchased from DiscoveRx (Freemont, Calif.). Cells were grown in Ham's F12 media supplemented with 1 mM L-glutamine (Thermo Scientific, West Palm Beach, Fla.), 10% fetal bovine serum (Hyclone), 50 Um′ penicillin, 50 μg/ml streptomycin (Life Technologies), G418 and hygromycin B. Cells were grown and frozen as previously described (J. M. Conley, et al., J Vis Exp, e51218 (2014)).
as §1, with “Cyclic AMP accumulation was measured as previously described (Brust, et al., J. Pharmacol. Exp. Ther. 352, 480-493(2015)). Briefly,” for “Briefly,”

hAC5 = target: T4, hAC5 (Homo sapiens, UniProt O95622); experiment: Cyclic AMP accumulation in stable HEK-AC5 cells, stimulated with 300 nM forskolin; format: cell-based; conditions: Table 1, at 30 μM, negative = potentiated, n = 2
T4 construct: expressed in transfected cells
T4 sequence (O95622 whole entry): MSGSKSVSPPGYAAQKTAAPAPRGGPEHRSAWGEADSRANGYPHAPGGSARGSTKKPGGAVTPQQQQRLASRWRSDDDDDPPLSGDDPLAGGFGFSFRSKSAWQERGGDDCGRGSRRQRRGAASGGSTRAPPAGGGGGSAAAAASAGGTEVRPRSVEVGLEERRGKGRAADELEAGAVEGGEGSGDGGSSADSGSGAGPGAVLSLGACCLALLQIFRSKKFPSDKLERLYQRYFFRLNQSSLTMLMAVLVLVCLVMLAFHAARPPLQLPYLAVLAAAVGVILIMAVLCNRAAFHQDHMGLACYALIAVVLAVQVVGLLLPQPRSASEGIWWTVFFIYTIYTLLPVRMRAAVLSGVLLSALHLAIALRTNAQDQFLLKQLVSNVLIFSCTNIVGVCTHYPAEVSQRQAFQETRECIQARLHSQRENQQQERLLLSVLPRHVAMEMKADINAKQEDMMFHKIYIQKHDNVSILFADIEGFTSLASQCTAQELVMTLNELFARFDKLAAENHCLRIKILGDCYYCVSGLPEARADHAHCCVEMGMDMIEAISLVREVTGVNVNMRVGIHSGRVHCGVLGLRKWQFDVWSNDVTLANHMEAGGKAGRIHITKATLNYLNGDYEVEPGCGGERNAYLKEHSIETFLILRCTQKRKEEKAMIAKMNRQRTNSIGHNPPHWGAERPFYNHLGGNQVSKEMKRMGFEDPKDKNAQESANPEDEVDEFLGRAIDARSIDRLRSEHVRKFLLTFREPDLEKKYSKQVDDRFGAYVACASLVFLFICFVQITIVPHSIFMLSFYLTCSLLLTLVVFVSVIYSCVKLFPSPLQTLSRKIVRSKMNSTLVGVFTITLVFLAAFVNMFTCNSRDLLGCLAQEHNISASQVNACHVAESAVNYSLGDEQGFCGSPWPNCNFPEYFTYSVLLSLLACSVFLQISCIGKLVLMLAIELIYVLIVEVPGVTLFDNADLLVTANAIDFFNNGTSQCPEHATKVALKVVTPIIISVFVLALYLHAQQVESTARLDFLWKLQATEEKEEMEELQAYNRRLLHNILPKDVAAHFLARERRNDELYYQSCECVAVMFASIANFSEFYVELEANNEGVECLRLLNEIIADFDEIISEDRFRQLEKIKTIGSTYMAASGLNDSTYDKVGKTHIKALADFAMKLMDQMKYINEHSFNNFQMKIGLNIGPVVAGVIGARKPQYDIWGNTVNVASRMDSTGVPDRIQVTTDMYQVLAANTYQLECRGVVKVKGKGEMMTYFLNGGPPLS
Method: as §1, with “Cyclic AMP accumulation was measured as previously described (Brust, et al., J. Pharmacol. Exp. Ther. 352, 480-493(2015)). Briefly,” for “Briefly,”

chronic pain responses [1] = conditions: rats; literature; cited from earlier work
chronic pain responses [2] = conditions: mice; literature; cited from earlier work
[3] = Table 1, stable HEK cells, A23187-stimulated cAMP, n ≥ 3
[4] = Table 1, stable HEK cells, A23187-stimulated cAMP, n ≥ 3, read-out: hAC1 IC50
[5] = Table 1, stable HEK cells, A23187-stimulated cAMP, n ≥ 3, read-out: hAC8 IC50
[6] = Table 2, read-out: HEK-AC1 IC50

Method for HEK-AC1 cells: Cell viability assays were conducted with HEK-AC1 cells following plating and compound incubation protocols identical to the procedures described above in “Cyclic AMP assays in cells”. Cell viability was measured as a percentage of vehicle using 2% Triton X-100 (Sigma-Aldrich) as a control. The CellTiter-Glo® Luminescent Cell Viability Assay kit from Promega (Madison, Wis.) was employed to assess cell viability according to the manufacturer's instructions. Luminescence counts were measured using a Synergy 4.

O=C(Nc1nnc(-c2ccc3c(c2)CCCC3)o1)c1ccccc1 [Compound F0608-0538]
Selectivity AC1 vs AC8 (hAC1): 10-fold
hAC1 % Inhib (hAC1; [3]): 101 ± 1%
IC50 (hAC1; [4]): 2.1 ± 0.4 µM
Viability % Veh (HEK-AC1 cells): 118 ± 6 % Veh
hAC2 % Inhib (hAC2): −95%
hAC8 % Inhib (hAC8; Table 1): 76 ± 8%
IC50 (hAC8; [5]): 21 ± 4 µM
hAC5 % Inhib (hAC5): −34%

CSc1cccc(C(=O)Nc2nnc(C3CCCCC3)o2)c1 [Compound F2289-0107]
Selectivity AC1 vs AC8 (hAC1): >4-fold
hAC1 % Inhib (hAC1; [3]): 99 ± 1%
IC50 (hAC1; [4]): 7.5 ± 2 µM
Viability % Veh (HEK-AC1 cells): 117 ± 1 % Veh
hAC2 % Inhib (hAC2): −210%
hAC8 % Inhib (hAC8; Table 1): 31 ± 2%
hAC5 % Inhib (hAC5): −28%

Cc1cc(NC(=O)c2ccco2)n(-c2nc(=O)cc(C)[nH]2)n1 [AC10043, N-(3-methyl-1-(6-methyl-4-oxo-1,4-dihydropyrimidin-2-yl)-1H-pyrazol-5-yl)furan-2-carboxamide]
inhibition at 30 µM (hAC1; Table 2): 92 ± 2%
IC50 (hAC1; [6]): 10.3 ± 2 µM
inhibition at 30 µM (hAC8; Table 2): 16 ± 9%

CCc1cc(=O)nc(-n2nc(C)cc2NC(=O)c2ccccc2F)[nH]1 [AC10048, N-(1-(6-ethyl-4-oxo-1,4-dihydropyrimidin-2-yl)-3-methyl-1H-pyrazol-5-yl)-2-fluorobenzamide]
inhibition at 30 µM (hAC1; Table 2): 99 ± 2%
IC50 (hAC1; [6]): 0.58 ± 0.2 µM
inhibition at 30 µM (hAC8; Table 2): 19 ± 11%

CCc1c(C)nc(-n2nc(C)cc2NC(=O)c2ccco2)[nH]c1=O [Compound F2215-0772]
Selectivity AC1 vs AC8 (hAC1): >30-fold
hAC1 % Inhib (hAC1; [3]): 100 ± 1%
IC50 (hAC1; [4]): 0.9 ± 0.2 µM
Viability % Veh (HEK-AC1 cells): 93 ± 1 % Veh
hAC2 % Inhib (hAC2): 32%
hAC8 % Inhib (hAC8; Table 1): 34 ± 7%
hAC5 % Inhib (hAC5): 13%

O=C(Nc1nnc(-c2ccc3c(c2)OCCO3)o1)c1ccc(Br)cc1 [Compound F0608-0011]
Selectivity AC1 vs AC8 (hAC1): 9-fold
hAC1 % Inhib (hAC1; [3]): 101 ± 1%
IC50 (hAC1; [4]): 2 ± 0.2 µM
Viability % Veh (HEK-AC1 cells): 125 ± 3 % Veh
hAC2 % Inhib (hAC2): −7%
hAC8 % Inhib (hAC8; Table 1): 79 ± 1%
IC50 (hAC8; [5]): 18 ± 2 µM
hAC5 % Inhib (hAC5): −10%

CC1CC(C)CN(S(=O)(=O)c2ccc(C(=O)Nc3nnc(-c4cccs4)o3)cc2)C1 (stereo not drawn) [Compound F0559-0346]
Selectivity AC1 vs AC8 (hAC1): 2-fold
hAC1 % Inhib (hAC1; [3]): 99 ± 1%
IC50 (hAC1; [4]): 9.1 ± 2 µM
Viability % Veh (HEK-AC1 cells): 118 ± 2 % Veh
hAC2 % Inhib (hAC2): −6%
hAC8 % Inhib (hAC8; Table 1): 74 ± 13%
IC50 (hAC8; [5]): 17 ± 6 µM
hAC5 % Inhib (hAC5): 4%

CCc1cc(=O)nc(-n2nc(C)cc2NC(=O)c2ccc(Cl)cc2)[nH]1 [AC10058, 4-chloro-N-(1-(6-ethyl-4-oxo-1,4-dihydropyrimidin-2-yl)-3-methyl-1H-pyrazol-5-yl)benzamide]
inhibition at 30 µM (hAC1; Table 2): 99 ± 1%
IC50 (hAC1; [6]): 1.2 ± 0.2 µM
inhibition at 30 µM (hAC8; Table 2): 19 ± 4%

CCc1cc(=O)[nH]c(-n2nc(C)cc2NC(=O)c2ccccc2F)n1 [Compound F2215-0213]
hAC1 % Inhib (hAC1; [3]): 99 ± 1%
IC50 (hAC1; [4]): 0.5 ± 0.1 µM
Viability % Veh (HEK-AC1 cells): 101 ± 17 % Veh
hAC2 % Inhib (hAC2): −70%
hAC8 % Inhib (hAC8; Table 1): 20 ± 1%
hAC5 % Inhib (hAC5): 9%

Nc1ncnc2c1ncn2CCNCCCCCO [NB001]
chronic pain responses (inflammatory and neuropathic) (chronic pain responses [1]): markedly attenuated chronic pain responses
chronic pain responses (inflammatory and neuropathic) (chronic pain responses [2]): markedly attenuated chronic pain responses

Cc1cc(NC(=O)c2ccccc2F)n(-c2nc(=O)cc(C)[nH]2)n1 [AC10042, 2-Fluoro-N-(3-methyl-1-(6-methyl-4-oxo-1,4-dihydropyrimidin-2-yl)-1H-pyrazol-5-yl)benzamide]
inhibition at 30 µM (hAC1; Table 2): 101 ± 0.7%
IC50 (hAC1; [6]): 1.5 ± 0.3 µM
inhibition at 30 µM (hAC8; Table 2): 9 ± 4%

CCc1cc(=O)nc(-n2nc(C)cc2NC(=O)c2cccc(F)c2)[nH]1 [AC10049, N-(1-(6-ethyl-4-oxo-1,4-dihydropyrimidin-2-yl)-3-methyl-1H-pyrazol-5-yl)-3-fluorobenzamide]
inhibition at 30 µM (hAC1; Table 2): 98 ± 1%
IC50 (hAC1; [6]): 1.3 ± 0.2 µM
inhibition at 30 µM (hAC8; Table 2): 26 ± 4%
IC50 (hAC8; Table 2, read-out: HEK-AC8 IC50): 68 ± 10 µM

Cc1cc(NC(=O)C2CC2)n(-c2nc(=O)cc(C)[nH]2)n1 [AC10051, N-(3-methyl-1-(6-methyl-4-oxo-1,4-dihydropyrimidin-2-yl)-1H-pyrazol-5-yl)cyclopropanecarboxamide]
inhibition at 30 µM (hAC1; Table 2): 4 ± 7%

CCc1cc(=O)nc(-n2nc(C)cc2NC(=O)C2CC2)[nH]1 [AC10050, N-(1-(6-ethyl-4-oxo-1,4-dihydropyrimidin-2-yl)-3-methyl-1H-pyrazol-5-yl)cyclopropanecarboxamide]
inhibition at 30 µM (hAC1; Table 2): 79 ± 4%
IC50 (hAC1; [6]): 16.7 ± 1 µM

CSc1ccccc1C(=O)Nc1cc(C)nn1-c1nc2c(c(=O)[nH]1)CCC2 [Compound F2215-0954]
Selectivity AC1 vs AC8 (hAC1): >5-fold
hAC1 % Inhib (hAC1; [3]): 99 ± 1%
IC50 (hAC1; [4]): 5.9 ± 0.4 µM
Viability % Veh (HEK-AC1 cells): 106 ± 14 % Veh
hAC2 % Inhib (hAC2): −185%
hAC8 % Inhib (hAC8; Table 1): 35 ± 8%
hAC5 % Inhib (hAC5): −21%

Cc1cc(NC(=O)c2cccc(F)c2)n(-c2nc(=O)cc(C)[nH]2)n1 [AC10057, 3-fluoro-N-(3-methyl-1-(6-methyl-4-oxo-1,4-dihydropyrimidin-2-yl)-1H-pyrazol-5-yl)benzamide]
inhibition at 30 µM (hAC1; Table 2): 94 ± 1%
IC50 (hAC1; [6]): 3.7 ± 0.2 µM
inhibition at 30 µM (hAC8; Table 2): 9 ± 2%
